Reference: PMC4427169, “Identification and structure solution of fragment hits against kinetoplastid N-myristoyltransferase” (Acta Crystallographica. Section F, Structural Biology …, 2015)
Values joined by “and” are separate entries in the source; they are usually repeats but may differ in a detail not shown here. Equal values may be shown once. Read-outs that look alike come from different tables or passages of the source.

Columns and labels:
[1] = target: T1, LmNMT (Leishmania major, UniProt Q4Q5S8); assay: Radiometric SPA-based enzyme-inhibition assay, LmNMT; type: biochemical; conditions: single fragment concentration of 0.5 mM
T1 construct: LmNMT (5–421) was cloned into a pET-15b-derived vector; 6xHis followed by TEV cleavage site (N); made in house; host or cells: E. coli Rosetta (DE3)
Procedure: (§1) Activity assays for TbNMT and LmNMT were carried out using a radiometric SPA-based assay as described previously (Frearson et al., 2010[▶]; Brand et al., 2014[▶]). Percentage inhibition (PI) was determined using a fragment concentration of 0.5 mM in the assay.

[2] = target: T1, LmNMT; assay: Biolayer interferometry binding, LmNMT; conditions: for increase of affinity in the presence of myristoyl-CoA, LmNMT: with vs without myristoyl-CoA; for LE LmNMT, MYA (absence of cofactor) / LE LmNMT, +MYA: ligand efficiency calculated from K d; for LE LmNMT, MYA (absence of cofactor): absence of myristoyl-CoA; for LE LmNMT, +MYA: presence of myristoyl-CoA
Procedure: (§2) TbNMT and LmNMT were biotinylated by incubation with NHS-PEG4-biotin (Thermo) in a 1:1 molar ratio for 30 min at room temperature before free biotinylation reagent was removed by passage through a 2 ml Zeba desalt spin column (Thermo). Biolayer interferometry (BLI) measurements were carried out using an Octet RED 384 instrument (ForteBio). TbNMT and LmNMT were immobilized upon superstreptavidin (SSA) biosensors by incubation for 900 s at 25 and 50 µg ml^−1, respectively, before free streptavidin sites were blocked by a 60 s dip into 10 µg ml^−1 biocytin (Tocris). A control set of SSA biosensors were prepared in parallel by blocking the surface with biocytin. A seven-point concentration series was prepared for each fragment molecule in threefold dilution steps from a top concentration of 1 mM. For each set of biosensors, a 60 s baseline in buffer alone was acquired followed by a 60 s association step and a 180 s dissociation step. […] Data were processed and analysed and K d values were determined using the global fitting procedures as implemented in ForteBio Data Analysis Software v.7.0.1.5. The ligand efficiency metric was calculated using LE = −RTlnK d/heavy-atom count (Hopkins et al., 2004[▶]).

[3] = target: T2, TbNMT (Trypanosoma brucei brucei, UniProt Q388H8); assay: Fragment screen by ligand-observed NMR spectroscopy (STD, water-LOGSY, CPMG) with DDD85646 competition; conditions: fragments at 500 µM, binding and competition with 50 µM DDD85646 in STD
T2 sequence (Q388H8 1-446): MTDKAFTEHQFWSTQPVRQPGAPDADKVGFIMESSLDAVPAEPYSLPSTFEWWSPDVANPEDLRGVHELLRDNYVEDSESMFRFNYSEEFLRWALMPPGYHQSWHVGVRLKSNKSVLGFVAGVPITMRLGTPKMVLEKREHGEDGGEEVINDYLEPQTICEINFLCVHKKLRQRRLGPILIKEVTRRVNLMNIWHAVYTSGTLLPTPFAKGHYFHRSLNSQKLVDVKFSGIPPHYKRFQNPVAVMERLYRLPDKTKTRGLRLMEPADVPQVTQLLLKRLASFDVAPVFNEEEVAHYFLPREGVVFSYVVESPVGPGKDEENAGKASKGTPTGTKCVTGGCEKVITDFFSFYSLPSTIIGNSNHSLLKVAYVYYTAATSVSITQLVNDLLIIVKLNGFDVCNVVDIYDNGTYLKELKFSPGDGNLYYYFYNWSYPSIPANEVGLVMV
Procedure: TbNMT was prepared at 10 µM in 25 mM sodium phosphate pH 7.4 and 10% deuterated water and the cofactor myristoyl-CoA was added to a final concentration of 50 µM.

[4] = target: T2, TbNMT; assay: Radiometric SPA-based enzyme-inhibition assay, TbNMT; type: biochemical; design: The gene encoding TbNMT was cloned into a pET-15-derived expression vector; 6xHis followed by TEV cleavage site (N); made in house; host or cells: Escherichia coli Rosetta (DE3); conditions: single fragment concentration of 0.5 mM
Procedure: as §1

[5] = target: T2, TbNMT; assay: Biolayer interferometry binding, TbNMT; design: The gene encoding TbNMT was cloned into a pET-15-derived expression vector; 6xHis followed by TEV cleavage site (N); made in house; host or cells: Escherichia coli Rosetta (DE3); conditions: for increase of affinity in the presence of myristoyl-CoA, TbNMT: with vs without myristoyl-CoA; for LE TbNMT, MYA (absence of cofactor) / LE TbNMT, +MYA: ligand efficiency calculated from K d; for LE TbNMT, MYA (absence of cofactor): absence of myristoyl-CoA; for LE TbNMT, +MYA: presence of myristoyl-CoA
Procedure: as §2

[6] = design: method as in Frearson et al., 2010; conditions: ref Frearson et al., 2010; cited from earlier work
[7] = BLI, absence of the cofactor myristoyl-CoA (MYA), read-out: K d LmNMT, MYA (absence of cofactor)
[8] = BLI, presence of 1 µM myristoyl-CoA (MYA), read-out: K d LmNMT, +MYA
[9] = BLI, absence of the cofactor myristoyl-CoA (MYA), read-out: K d TbNMT, MYA (absence of cofactor)
[10] = BLI, presence of 1 µM myristoyl-CoA (MYA), read-out: K d TbNMT, +MYA

T1 sequence (Q4Q5S8 entry or part of it): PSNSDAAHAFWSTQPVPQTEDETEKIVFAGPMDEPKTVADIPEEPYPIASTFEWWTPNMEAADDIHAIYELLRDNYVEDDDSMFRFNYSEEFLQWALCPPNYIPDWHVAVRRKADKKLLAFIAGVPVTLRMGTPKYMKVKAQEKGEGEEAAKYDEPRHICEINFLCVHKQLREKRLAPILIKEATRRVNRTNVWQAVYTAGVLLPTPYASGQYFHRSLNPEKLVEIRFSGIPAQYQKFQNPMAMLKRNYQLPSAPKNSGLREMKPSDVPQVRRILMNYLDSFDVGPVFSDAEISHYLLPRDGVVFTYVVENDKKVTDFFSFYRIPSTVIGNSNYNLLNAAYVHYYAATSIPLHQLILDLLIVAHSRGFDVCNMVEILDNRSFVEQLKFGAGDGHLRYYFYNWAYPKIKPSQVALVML

| Structure (SMILES) | PI (%) LmNMT [1] | Kd [2, 7] | Kd [2, 8] | increase of affinity in the presence of myristoyl-CoA, LmNMT ([2]; BLI) | LE LmNMT, MYA (absence of cofactor) [2] | LE LmNMT, +MYA [2] | NMR hit class [3] | PI (%) TbNMT [4] | Kd [5, 9] | Kd [5, 10] | increase of affinity in the presence of myristoyl-CoA, TbNMT ([5]; BLI) | LE TbNMT, MYA (absence of cofactor) [5] | LE TbNMT, +MYA [5] | Kd [2] | Kd [5] | CNS exposure [6] |
| --- | --- | --- | --- | --- | --- | --- | --- | --- | --- | --- | --- | --- | --- | --- | --- | --- |
| CNCc1cccc(CN2CCOCC2)c1 [Fragment 2] | 55% | 980 µM | 200 µM | around fivefold | 0.25 | 0.31 | class I | 36% | 760 µM | 90 µM | around fivefold | < 0.3 and 0.26 | > 0.3 and 0.34 |  |  |  |
| Nc1ccccc1N1CCNCC1 [Fragment 4] | 53% |  |  |  | 0.42 |  | class II |  |  |  |  | 0.45 |  | 98 µM | 48 µM |  |
| Cc1nn(C)c(C)c1NS(=O)(=O)c1c(Cl)cc(-c2ccnc(N3CCNCC3)c2)cc1Cl [DDD85646] |  |  |  |  |  |  |  |  |  |  |  |  |  |  |  | lack of CNS exposure |
| CNCc1cc(-c2ccccc2)nn1C [Fragment 3] | 52% | 700 µM | 180 µM | around fivefold | 0.28 | 0.34 | class II | 70% | 530 µM | 200 µM | around fivefold | < 0.3 and 0.30 | > 0.3 and 0.33 |  |  |  |
